Laboratory results from patent publication US10961252B2, “Quinazoline and indole compounds to treat medical disorders” (Achillion Pharmaceuticals, Inc., priority 2016, dated 2021).

Each compound was assayed on Normal Human Serum (NHS) (assay: Hemolysis assay: lysis of rabbit erythrocytes (RE) by Normal Human Serum (NHS)). Settings: rabbit erythrocyte, 0.5 h, Table 3, hemolysis of rabbit erythrocytes with NHS, GVB0 plus 10 mM Mg-EGTA, 37° C., read-out: IC50 (Stars).
Format: cell-based
Protocol: The hemolysis assay was previously described by G. Ruiz-Gomez, et al., J. Med. Chem. (2009) 52: 6042-6052. Prior to the assay, the optimum concentration of Normal Human Serum (NHS) needed to achieve 100% lysis of rabbit erythrocytes (RE) is determined by titration. In the assay, NHS (Complement Technology) is diluted in GVB^0 Buffer (0.1% gelatin, 5 mM Veronal, 145 mM NaCl, 0.025% NaN3, pH 7.3, Complement Technology) plus 10 mM Mg-EGTA and incubated with test compound at various concentrations for 15 minutes at 37° C. RE (Complement Technology) freshly suspended in GVB^0 plus 10 mM Mg-EGTA are added to a final concentration of 1×10^8 cells/mL and reactions are incubated for 30 minutes at 37° C. Positive control reactions (100% lysis) consist of GVB^0 plus 10 mM Mg-EGTA with NHS and RE but without test compound; negative control reactions (0% lysis) consist of GVB^0 plus 10 mM Mg-EGTA with RE only. Samples are centrifuged at 2000 g for 3 minutes and supernatants collected. Absorbance at 405 nm (A405) is recorded using a microplate spectrophotometer. IC50 values are calculated by nonlinear regression from the percentage of hemolysis as a function of test compound concentration.

Row | SMILES | IC50 [nM]
1 | COc1cc(C)c2[nH]ccc2c1CN1CC[C@@H](C)C[C@H]1c1ccc([S@@](C)(=N)=O)cc1 [Compound 30, 5-Methoxy-7-methyl-4-(((2S,4R)-4-methyl-2-(4-((S)—S-methylsulfonimidoyl)phenyl)piperidin-1-yl)methyl)-1H-indole] | < 1000
2 | COc1cc(C)c2[nH]ccc2c1CN1CC[C@@H](C)C[C@H]1c1ccc([S@](C)(=N)=O)cc1 [Compound 31, 5-Methoxy-7-methyl-4-(((2S,4R)-4-methyl-2-(4-((R)—S-methylsulfonimidoyl)phenyl)piperidin-1-yl)methyl)-H-indole] | < 1000
3 | COc1cc(C)c2[nH]ccc2c1CN1CC[C@@H](C)C[C@H]1c1ccc(P(=O)(O)O)cc1 [Compound 32, (4-((2S,4R)-1-((5-Methoxy-7-methyl-1H-indol-4-yl)methyl)-4-methylpiperidin-2-yl)phenyl)phosphonic Acid] | < 1000
4 | COc1cc(C)c2[nH]ccc2c1CN1CC[C@H](C)C[C@@H]1c1ccc(P(=O)(O)O)cc1 [Compound 33, 4-((2R, 4S)-1-((5-Methoxy-7-methyl-1H-indol-4-yl)methyl)-4-methylpiperidin-2-yl) Phenylphosphonic Acid] | 1000 to 10000
5 | COc1cc(C)c2[nH]ccc2c1CN1CC[C@@H](C)C[C@H]1c1ccc(C(=O)O)c2c1CCCC2 [Compound 34, 4-((2S,4R)-1-((5-Methoxy-7-methyl-1H-indol-4-yl)methyl)-4-methylpiperidin-2-yl)-5,6,7,8-tetrahydronaphthalene-1-carboxylic Acid] | < 1000
6 | COc1cc(C)c2[nH]ccc2c1CN1CC[C@@H](C)C[C@@H]1c1ccc(C(=O)O)c2c1CCCC2 [Compound 35, 4-((2R,4R)-1-((5-Methoxy-7-methyl-1H-indol-4-yl)methyl)-4-methylpiperidin-2-yl)-5,6,7,8-tetrahydronaphthalene-1-carboxylic Acid] | > 10000
